# Data published in patent US11767310B2, “Nicotinamide RIPK1 inhibitors” (AbbVie Inc., priority 2021, dated 2023).
# Read-outs that look alike come from different tables or passages of the source.
# How the values were obtained:
# Experiment in all cases: Kinase binding screen
# Conditions in all cases: read-out: Percent Control at 100 nM Compound Concentration
# [1] = molecular target: YANK3 (Homo sapiens (Human), UniProt Q86UX6)
# [2] = molecular target: STK39 (Homo sapiens (Human), UniProt Q9UEW8)
# [3] = molecular target: CDK9 (Homo sapiens (Human), UniProt P50750)
# [4] = molecular target: PAK6 (Homo sapiens (Human), UniProt Q9NQU5)
# [5] = molecular target: RET (Homo sapiens (Human), UniProt P07949)
# [6] = molecular target: MET(Y1235D) (Homo sapiens (Human), UniProt P08581, Y1235D)
# [7] = molecular target: LIMK1 (Homo sapiens (Human), UniProt P53667)
# [8] = molecular target: MAP3K15 (Homo sapiens (Human), UniProt Q6ZN16)
# [9] = molecular target: ABL1(H396P)-nonphosphorylated (Homo sapiens (Human), UniProt P00519, H396P)
# [10] = molecular target: TYK2(JH2domain-pseudokinase) (Homo sapiens (Human), UniProt P29597)
# [11] = molecular target: ACVR1 (Homo sapiens (Human), UniProt Q04771)
# [12] = molecular target: SGK2 (Homo sapiens (Human), UniProt Q9HBY8)
# [13] = molecular target: CSNK2A1 (Homo sapiens (Human), UniProt P68400)
# [14] = molecular target: NEK9 (Homo sapiens (Human), UniProt Q8TD19)
# [15] = molecular target: IRAK1 (Homo sapiens (Human), UniProt P51617)
# [16] = molecular target: CAMK2B (Homo sapiens (Human), UniProt Q13554)
# [17] = molecular target: DCAMKL2 (Homo sapiens (Human), UniProt Q8N568)
# [18] = molecular target: MST1 (Homo sapiens (Human), UniProt Q13043)
# [19] = molecular target: ERK8 (Homo sapiens (Human), UniProt Q8TD08)
# [20] = molecular target: SIK2 (Homo sapiens (Human), UniProt Q9H0K1)
# [21] = molecular target: ABL1-phosphorylated (Homo sapiens (Human), UniProt P00519)
# [22] = molecular target: PIM3 (Homo sapiens (Human), UniProt Q86V86)
# [23] = molecular target: PDGFRB (Homo sapiens (Human), UniProt P09619)
# [24] = molecular target: ABL1(T315I)-nonphosphorylated (Homo sapiens (Human), UniProt P00519, T315I)
# [25] = molecular target: DAPK1 (Homo sapiens (Human), UniProt P53355)
# [26] = molecular target: TIE1 (Homo sapiens (Human), UniProt P35590)
# [27] = molecular target: CHEK1 (Homo sapiens (Human), UniProt O14757)
# [28] = molecular target: DRAK2 (Homo sapiens (Human), UniProt O94768)
# [29] = molecular target: GSK3B (Homo sapiens (Human), UniProt P49841)
# Sequence of GSK3B (P49841 whole entry): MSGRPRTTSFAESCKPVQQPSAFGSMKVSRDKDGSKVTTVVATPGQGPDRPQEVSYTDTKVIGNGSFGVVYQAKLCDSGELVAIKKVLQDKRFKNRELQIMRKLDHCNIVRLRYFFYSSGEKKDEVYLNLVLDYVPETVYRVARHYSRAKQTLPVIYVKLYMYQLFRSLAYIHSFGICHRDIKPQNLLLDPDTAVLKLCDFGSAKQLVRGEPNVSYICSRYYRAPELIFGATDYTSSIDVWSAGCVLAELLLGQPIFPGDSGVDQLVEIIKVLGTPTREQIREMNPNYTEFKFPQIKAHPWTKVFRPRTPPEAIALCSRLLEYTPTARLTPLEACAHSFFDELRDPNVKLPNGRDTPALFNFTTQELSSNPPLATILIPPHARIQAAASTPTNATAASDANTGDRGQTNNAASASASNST
# Sequence of ACVR1 (Q04771 21-509): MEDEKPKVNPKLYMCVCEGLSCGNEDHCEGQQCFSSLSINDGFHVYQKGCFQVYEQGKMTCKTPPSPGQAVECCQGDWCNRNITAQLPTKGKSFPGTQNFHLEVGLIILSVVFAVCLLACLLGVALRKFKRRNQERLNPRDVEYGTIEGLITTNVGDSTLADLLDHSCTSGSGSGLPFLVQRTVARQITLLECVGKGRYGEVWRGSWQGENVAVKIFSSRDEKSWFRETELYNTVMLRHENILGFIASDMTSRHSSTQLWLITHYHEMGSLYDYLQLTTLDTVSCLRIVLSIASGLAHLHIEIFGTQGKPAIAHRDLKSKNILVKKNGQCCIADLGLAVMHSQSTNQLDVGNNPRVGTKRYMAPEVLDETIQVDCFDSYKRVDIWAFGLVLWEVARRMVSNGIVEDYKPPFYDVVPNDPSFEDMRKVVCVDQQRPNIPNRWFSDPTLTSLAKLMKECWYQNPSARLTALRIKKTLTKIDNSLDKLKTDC
# Sequence of DAPK1 (P53355 whole entry): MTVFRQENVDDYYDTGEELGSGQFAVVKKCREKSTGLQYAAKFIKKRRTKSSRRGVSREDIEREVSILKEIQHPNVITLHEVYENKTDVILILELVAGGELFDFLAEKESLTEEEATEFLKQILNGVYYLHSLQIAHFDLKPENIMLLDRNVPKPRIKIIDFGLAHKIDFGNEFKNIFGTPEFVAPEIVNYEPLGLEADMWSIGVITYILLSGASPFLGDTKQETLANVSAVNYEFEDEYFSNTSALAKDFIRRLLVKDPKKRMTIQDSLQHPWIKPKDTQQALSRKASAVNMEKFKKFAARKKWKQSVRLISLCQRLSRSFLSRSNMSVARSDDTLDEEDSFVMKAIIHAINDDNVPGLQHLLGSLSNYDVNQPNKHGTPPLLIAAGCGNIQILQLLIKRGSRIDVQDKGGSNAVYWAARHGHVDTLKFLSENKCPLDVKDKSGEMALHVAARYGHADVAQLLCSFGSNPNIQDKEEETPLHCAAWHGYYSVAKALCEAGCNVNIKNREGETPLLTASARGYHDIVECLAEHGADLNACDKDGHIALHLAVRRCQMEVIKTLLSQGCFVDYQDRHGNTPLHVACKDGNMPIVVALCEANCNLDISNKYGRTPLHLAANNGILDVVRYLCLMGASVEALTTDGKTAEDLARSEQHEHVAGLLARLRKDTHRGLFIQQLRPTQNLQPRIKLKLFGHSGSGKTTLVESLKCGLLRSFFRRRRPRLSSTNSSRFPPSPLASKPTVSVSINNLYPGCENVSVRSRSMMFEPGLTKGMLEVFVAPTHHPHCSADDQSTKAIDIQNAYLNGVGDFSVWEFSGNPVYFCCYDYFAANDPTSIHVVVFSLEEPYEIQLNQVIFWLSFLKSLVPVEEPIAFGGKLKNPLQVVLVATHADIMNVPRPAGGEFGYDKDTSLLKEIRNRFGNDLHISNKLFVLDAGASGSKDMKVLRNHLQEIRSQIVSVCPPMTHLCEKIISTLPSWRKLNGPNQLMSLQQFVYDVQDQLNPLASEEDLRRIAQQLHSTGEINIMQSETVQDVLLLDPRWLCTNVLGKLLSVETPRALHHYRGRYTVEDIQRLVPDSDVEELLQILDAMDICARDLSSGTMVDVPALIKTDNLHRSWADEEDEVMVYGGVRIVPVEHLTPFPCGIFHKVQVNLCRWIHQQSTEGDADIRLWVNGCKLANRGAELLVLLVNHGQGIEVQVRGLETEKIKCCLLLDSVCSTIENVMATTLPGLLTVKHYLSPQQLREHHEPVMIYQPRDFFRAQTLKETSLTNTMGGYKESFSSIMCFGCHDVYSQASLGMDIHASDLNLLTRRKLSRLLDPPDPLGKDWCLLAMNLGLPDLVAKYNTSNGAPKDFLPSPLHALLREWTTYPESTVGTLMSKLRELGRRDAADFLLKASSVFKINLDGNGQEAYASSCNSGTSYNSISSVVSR
# Sequence of CDK9 (P50750 whole entry): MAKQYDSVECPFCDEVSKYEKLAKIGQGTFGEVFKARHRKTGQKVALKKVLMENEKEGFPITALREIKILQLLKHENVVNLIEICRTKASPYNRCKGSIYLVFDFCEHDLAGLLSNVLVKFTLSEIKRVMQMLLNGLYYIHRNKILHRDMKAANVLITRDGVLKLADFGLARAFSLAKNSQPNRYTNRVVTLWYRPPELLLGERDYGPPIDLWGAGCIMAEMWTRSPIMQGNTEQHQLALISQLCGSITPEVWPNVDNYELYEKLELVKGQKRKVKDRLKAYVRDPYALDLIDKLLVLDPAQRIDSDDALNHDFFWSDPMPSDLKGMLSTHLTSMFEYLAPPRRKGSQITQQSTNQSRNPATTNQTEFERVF
# Sequence of MST1 (Q13043 whole entry): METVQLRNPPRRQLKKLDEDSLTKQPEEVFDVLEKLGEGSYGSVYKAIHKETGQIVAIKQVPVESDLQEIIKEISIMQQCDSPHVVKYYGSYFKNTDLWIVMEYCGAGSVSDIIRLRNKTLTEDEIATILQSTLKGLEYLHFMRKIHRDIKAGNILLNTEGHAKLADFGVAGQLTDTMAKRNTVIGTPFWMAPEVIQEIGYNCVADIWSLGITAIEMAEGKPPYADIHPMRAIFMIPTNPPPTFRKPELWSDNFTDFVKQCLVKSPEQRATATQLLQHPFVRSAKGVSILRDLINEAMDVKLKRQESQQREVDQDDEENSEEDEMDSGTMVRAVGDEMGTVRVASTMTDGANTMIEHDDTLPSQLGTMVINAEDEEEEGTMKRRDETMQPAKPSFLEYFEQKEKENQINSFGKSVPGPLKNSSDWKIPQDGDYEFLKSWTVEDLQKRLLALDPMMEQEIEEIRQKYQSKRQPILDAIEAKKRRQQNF
# Sequence of TYK2(JH2domain-pseudokinase) (P29597 589-875): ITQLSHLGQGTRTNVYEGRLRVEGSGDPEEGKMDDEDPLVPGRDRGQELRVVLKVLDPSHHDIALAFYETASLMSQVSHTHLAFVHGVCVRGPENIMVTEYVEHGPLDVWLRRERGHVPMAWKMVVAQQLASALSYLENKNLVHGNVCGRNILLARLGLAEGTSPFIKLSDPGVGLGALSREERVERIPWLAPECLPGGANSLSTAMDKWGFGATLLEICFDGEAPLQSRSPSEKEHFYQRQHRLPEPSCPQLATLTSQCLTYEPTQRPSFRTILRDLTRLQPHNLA
# Sequence of MET(Y1235D) (P08581 25-1390 Y1235D): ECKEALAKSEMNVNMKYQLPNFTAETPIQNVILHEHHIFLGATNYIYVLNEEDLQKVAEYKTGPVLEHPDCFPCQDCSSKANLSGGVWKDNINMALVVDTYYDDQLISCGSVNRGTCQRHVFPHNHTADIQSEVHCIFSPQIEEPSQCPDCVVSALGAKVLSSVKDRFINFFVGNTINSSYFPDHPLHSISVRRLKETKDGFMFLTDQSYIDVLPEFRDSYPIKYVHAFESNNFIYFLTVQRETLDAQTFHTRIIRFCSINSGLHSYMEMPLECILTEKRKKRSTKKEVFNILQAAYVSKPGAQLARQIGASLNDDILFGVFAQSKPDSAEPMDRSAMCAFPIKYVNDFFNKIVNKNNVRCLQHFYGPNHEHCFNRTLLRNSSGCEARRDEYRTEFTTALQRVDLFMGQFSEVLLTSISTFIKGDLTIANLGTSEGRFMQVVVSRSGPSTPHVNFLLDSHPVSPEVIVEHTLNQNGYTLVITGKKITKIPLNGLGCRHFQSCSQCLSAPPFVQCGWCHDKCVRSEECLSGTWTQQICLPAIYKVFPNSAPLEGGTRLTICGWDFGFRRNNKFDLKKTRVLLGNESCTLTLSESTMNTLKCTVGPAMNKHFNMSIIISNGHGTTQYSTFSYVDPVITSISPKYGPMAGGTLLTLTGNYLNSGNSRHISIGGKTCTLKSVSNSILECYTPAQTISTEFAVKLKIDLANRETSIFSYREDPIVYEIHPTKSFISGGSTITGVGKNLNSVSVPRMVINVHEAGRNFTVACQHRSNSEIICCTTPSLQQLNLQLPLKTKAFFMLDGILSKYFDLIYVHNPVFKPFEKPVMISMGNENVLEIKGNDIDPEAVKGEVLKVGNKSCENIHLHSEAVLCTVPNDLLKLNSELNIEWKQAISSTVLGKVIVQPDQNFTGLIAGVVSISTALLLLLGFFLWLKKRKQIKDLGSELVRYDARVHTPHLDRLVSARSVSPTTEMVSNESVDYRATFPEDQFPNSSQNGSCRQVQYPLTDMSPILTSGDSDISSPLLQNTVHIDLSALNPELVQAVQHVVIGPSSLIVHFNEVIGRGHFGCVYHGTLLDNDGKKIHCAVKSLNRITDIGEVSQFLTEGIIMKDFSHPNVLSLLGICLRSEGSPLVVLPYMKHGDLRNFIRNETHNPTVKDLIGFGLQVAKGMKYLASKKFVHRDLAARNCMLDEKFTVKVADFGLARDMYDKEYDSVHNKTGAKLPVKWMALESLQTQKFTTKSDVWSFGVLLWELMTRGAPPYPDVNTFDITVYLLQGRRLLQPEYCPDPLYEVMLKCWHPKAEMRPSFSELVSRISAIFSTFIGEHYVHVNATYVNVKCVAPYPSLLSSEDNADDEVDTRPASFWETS
smiles,measurement,setting,value
"CN(C[C@@H](O)Cc1ccccc1)C(=O)c1cncc(C#Cc2cnn(C(F)F)c2)c1 [Example 2, (S)-5-((1-(difluoromethyl)-1H-pyrazol-4-yl)ethynyl)-N-(2-hydroxy-3-phenylpropyl)-N-methylnicotinamide]",remaining activity at 0.1 µM,[1]; YANK3,67%
same,remaining activity at 0.1 µM,[2]; STK39,100%
same,remaining activity at 0.1 µM,[3]; CDK9,100%
same,remaining activity at 0.1 µM,[4]; PAK6,85%
same,remaining activity at 0.1 µM,[5]; RET,100%
same,remaining activity at 0.1 µM,[6]; MET(Y1235D),98%
same,remaining activity at 0.1 µM,[7]; LIMK1,100%
same,remaining activity at 0.1 µM,[8]; MAP3K15,100%
same,remaining activity at 0.1 µM,[9]; ABL1(H396P)-nonphosphorylated,88%
same,remaining activity at 0.1 µM,[10]; TYK2(JH2domain-pseudokinase),100%
same,remaining activity at 0.1 µM,[11]; ACVR1,100%
same,remaining activity at 0.1 µM,[12]; SGK2,100%
same,remaining activity at 0.1 µM,[13]; CSNK2A1,98%
same,remaining activity at 0.1 µM,[14]; NEK9,100%
same,remaining activity at 0.1 µM,[15]; IRAK1,91%
same,remaining activity at 0.1 µM,[16]; CAMK2B,100%
same,remaining activity at 0.1 µM,[17]; DCAMKL2,100%
same,remaining activity at 0.1 µM,[18]; MST1,100%
same,remaining activity at 0.1 µM,[19]; ERK8,100%
same,remaining activity at 0.1 µM,[20]; SIK2,89%
same,remaining activity at 0.1 µM,[21]; ABL1-phosphorylated,79%
same,remaining activity at 0.1 µM,[22]; PIM3,100%
same,remaining activity at 0.1 µM,[23]; PDGFRB,100%
same,remaining activity at 0.1 µM,[24]; ABL1(T315I)-nonphosphorylated,100%
same,remaining activity at 0.1 µM,[25]; DAPK1,100%
same,remaining activity at 0.1 µM,[26]; TIE1,100%
same,remaining activity at 0.1 µM,[27]; CHEK1,100%
same,remaining activity at 0.1 µM,[28]; DRAK2,100%
same,remaining activity at 0.1 µM,[29]; GSK3B,100%
"CN(C[C@H](Cc1ccccc1)OP(=O)(O)O)C(=O)c1cncc(C#Cc2cnn(C(F)F)c2)c1 [Example 19, (S)-1-(5-((1-(difluoromethyl)-1H-pyrazol-4-yl)ethynyl)-N-methylnicotinamido)-3-phenylpropan-2-yl dihydrogen phosphate]",remaining activity at 0.1 µM,[1],54%
same,remaining activity at 0.1 µM,[2],100%
same,remaining activity at 0.1 µM,[3],100%
same,remaining activity at 0.1 µM,[4],80%
same,remaining activity at 0.1 µM,[5],100%
same,remaining activity at 0.1 µM,[6],99%
same,remaining activity at 0.1 µM,[7],100%
same,remaining activity at 0.1 µM,[8],97%
same,remaining activity at 0.1 µM,[9],96%
same,remaining activity at 0.1 µM,[10],90%
same,remaining activity at 0.1 µM,[11],100%
same,remaining activity at 0.1 µM,[12],93%
same,remaining activity at 0.1 µM,[13],98%
same,remaining activity at 0.1 µM,[14],100%
same,remaining activity at 0.1 µM,[15],86%
same,remaining activity at 0.1 µM,[16],92%
same,remaining activity at 0.1 µM,[17],100%
same,remaining activity at 0.1 µM,[18],100%
same,remaining activity at 0.1 µM,[19],100%
same,remaining activity at 0.1 µM,[20],96%
same,remaining activity at 0.1 µM,[21],78%
same,remaining activity at 0.1 µM,[22],100%
same,remaining activity at 0.1 µM,[23],100%
same,remaining activity at 0.1 µM,[24],97%
same,remaining activity at 0.1 µM,[25],100%
same,remaining activity at 0.1 µM,[26],100%
same,remaining activity at 0.1 µM,[27],100%
same,remaining activity at 0.1 µM,[28],100%
same,remaining activity at 0.1 µM,[29],98%
